ChEMBL document CHEMBL5291721, “A preclinical secondary pharmacology resource illuminates target-adverse drug reaction associations of marketed drugs” (Nat Commun, 2023)

Tests used:
[1] = molecular target: T1, Neuropeptide Y receptor type 1 (Homo sapiens, UniProt P25929)
T1 sequence (P25929 whole entry): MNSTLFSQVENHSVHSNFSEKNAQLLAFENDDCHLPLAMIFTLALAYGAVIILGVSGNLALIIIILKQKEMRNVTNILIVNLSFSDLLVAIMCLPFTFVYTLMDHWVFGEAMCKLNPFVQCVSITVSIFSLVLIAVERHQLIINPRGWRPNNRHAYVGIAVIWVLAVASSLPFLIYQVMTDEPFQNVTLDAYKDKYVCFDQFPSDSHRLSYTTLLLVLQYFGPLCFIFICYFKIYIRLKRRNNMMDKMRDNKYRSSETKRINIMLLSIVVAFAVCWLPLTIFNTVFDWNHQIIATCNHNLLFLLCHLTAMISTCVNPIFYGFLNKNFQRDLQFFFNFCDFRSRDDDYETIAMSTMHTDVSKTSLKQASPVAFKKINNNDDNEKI

[2] = molecular target: 3',5'-cyclic-AMP phosphodiesterase 4D (Homo sapiens, UniProt Q08499); type: functional
[3] = molecular target: Sodium-dependent dopamine transporter (Homo sapiens, UniProt Q01959)
Mu-type opioid receptor = Mu-type opioid receptor (Homo sapiens, UniProt P35372)
Vasopressin V2 receptor = Vasopressin V2 receptor (Homo sapiens, UniProt P30518)
Cannabinoid receptor 1 = Cannabinoid receptor 1 (Homo sapiens, UniProt P21554)
[4] = molecular target: T2, Amine oxidase [flavin-containing] A (Homo sapiens, UniProt P21397); type: functional
T2 sequence (P21397 whole entry): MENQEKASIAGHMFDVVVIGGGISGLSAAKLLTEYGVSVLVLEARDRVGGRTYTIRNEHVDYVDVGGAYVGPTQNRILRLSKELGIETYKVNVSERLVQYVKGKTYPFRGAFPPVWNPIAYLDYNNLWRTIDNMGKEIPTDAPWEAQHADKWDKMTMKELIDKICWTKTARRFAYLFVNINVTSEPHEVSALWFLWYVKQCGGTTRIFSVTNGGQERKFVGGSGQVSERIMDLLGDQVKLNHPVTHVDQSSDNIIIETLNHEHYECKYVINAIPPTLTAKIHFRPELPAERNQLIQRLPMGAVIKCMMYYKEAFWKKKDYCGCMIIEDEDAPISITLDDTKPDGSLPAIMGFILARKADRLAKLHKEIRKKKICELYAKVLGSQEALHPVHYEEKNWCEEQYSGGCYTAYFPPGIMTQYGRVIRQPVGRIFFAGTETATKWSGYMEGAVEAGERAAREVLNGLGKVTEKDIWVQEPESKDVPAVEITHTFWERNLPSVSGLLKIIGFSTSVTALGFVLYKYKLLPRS

Progesterone receptor = molecular target: T3, Progesterone receptor (Homo sapiens, UniProt P06401); type: functional
T3 sequence (P06401 whole entry): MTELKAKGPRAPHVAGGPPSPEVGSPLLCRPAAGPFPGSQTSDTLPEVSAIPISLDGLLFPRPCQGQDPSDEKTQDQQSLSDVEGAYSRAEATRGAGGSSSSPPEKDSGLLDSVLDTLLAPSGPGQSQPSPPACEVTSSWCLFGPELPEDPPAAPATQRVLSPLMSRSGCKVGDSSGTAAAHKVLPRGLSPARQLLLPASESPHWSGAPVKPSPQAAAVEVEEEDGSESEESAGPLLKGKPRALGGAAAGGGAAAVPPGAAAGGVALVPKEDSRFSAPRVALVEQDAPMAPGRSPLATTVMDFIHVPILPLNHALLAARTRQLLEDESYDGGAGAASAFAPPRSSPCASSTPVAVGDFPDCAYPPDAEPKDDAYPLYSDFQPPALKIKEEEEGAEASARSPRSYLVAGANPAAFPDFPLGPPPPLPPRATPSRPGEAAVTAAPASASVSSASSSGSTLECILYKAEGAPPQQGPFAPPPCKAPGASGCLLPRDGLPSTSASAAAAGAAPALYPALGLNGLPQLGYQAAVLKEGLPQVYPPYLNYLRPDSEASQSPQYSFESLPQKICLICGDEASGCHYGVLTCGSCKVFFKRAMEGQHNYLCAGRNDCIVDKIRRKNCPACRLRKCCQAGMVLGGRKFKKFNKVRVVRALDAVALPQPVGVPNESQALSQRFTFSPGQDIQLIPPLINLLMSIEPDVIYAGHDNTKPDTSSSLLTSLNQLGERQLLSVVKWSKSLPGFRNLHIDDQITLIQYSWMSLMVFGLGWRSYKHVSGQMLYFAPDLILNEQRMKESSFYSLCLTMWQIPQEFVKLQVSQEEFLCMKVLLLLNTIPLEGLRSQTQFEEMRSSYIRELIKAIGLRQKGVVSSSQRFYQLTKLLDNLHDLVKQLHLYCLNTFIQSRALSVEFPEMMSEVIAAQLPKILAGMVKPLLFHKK

D(1A) dopamine receptor = D(1A) dopamine receptor (Homo sapiens, UniProt P21728); type: functional, cell-based
Melanocortin receptor 4 = Melanocortin receptor 4 (Homo sapiens, UniProt P32245)
[5] = molecular target: T4, Alpha-1A adrenergic receptor (Homo sapiens, UniProt P35348); type: functional, cell-based
T4 sequence (P35348 whole entry): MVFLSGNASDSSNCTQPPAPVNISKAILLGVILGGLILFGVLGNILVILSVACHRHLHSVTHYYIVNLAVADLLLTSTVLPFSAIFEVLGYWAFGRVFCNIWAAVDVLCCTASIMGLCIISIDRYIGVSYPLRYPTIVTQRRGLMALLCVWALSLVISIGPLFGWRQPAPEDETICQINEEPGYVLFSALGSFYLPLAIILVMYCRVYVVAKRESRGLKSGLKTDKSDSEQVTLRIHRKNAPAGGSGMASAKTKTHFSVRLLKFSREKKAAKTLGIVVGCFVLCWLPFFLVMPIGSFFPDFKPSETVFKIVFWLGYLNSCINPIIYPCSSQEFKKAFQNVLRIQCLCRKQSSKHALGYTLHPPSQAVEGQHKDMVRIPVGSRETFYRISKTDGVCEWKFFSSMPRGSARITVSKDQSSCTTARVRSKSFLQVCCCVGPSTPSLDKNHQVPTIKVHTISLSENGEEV
Further: assay procedure not described here.

3',5'-cyclic-AMP phosphodiesterase 4D, sequence (Q08499 whole entry): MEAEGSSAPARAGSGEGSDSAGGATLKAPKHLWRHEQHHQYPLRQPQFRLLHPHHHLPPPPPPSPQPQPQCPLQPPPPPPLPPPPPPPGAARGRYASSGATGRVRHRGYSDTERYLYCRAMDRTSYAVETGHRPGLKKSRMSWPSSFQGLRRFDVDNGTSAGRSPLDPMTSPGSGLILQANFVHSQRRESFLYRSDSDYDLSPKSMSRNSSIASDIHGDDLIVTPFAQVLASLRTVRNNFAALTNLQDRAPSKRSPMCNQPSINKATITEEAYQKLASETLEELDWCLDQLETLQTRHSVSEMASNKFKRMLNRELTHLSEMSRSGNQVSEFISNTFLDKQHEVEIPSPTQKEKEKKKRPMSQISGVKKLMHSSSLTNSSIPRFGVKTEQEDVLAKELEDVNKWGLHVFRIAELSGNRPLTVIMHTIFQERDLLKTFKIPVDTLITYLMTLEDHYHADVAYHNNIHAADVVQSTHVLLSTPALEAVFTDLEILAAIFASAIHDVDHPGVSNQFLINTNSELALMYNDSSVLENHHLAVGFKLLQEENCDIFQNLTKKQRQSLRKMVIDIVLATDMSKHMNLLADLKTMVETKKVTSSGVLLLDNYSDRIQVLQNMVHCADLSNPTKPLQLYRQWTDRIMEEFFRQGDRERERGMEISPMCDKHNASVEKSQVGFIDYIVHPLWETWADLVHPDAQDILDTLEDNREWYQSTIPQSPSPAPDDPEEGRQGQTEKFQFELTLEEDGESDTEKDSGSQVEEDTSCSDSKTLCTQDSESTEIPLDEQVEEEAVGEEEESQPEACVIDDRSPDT
Cannabinoid receptor 1, sequence (P21554 whole entry): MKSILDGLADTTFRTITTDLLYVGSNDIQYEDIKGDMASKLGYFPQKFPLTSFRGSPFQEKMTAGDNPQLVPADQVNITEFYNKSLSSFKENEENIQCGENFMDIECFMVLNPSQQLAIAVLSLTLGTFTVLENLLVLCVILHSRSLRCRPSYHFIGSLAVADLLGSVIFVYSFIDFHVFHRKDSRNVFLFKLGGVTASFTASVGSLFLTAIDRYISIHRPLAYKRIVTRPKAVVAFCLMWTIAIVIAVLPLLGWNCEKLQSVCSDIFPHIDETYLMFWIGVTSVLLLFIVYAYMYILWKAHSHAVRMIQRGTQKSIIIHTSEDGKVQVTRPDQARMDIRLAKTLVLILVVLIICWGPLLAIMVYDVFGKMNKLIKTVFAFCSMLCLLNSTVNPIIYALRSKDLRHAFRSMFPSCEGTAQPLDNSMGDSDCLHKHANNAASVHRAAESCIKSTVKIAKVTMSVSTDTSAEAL
D(1A) dopamine receptor, sequence (P21728 whole entry): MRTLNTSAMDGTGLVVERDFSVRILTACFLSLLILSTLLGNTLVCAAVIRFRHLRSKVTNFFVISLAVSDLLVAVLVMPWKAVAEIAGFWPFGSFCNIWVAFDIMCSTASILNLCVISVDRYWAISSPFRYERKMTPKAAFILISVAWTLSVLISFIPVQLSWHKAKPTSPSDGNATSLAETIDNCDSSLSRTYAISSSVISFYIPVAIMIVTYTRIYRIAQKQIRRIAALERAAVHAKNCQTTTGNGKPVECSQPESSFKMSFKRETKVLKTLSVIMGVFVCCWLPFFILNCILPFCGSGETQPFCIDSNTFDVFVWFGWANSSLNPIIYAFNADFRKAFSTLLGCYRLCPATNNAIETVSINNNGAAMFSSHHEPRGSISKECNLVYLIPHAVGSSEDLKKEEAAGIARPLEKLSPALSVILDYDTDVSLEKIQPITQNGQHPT
Mu-type opioid receptor, sequence (P35372 whole entry): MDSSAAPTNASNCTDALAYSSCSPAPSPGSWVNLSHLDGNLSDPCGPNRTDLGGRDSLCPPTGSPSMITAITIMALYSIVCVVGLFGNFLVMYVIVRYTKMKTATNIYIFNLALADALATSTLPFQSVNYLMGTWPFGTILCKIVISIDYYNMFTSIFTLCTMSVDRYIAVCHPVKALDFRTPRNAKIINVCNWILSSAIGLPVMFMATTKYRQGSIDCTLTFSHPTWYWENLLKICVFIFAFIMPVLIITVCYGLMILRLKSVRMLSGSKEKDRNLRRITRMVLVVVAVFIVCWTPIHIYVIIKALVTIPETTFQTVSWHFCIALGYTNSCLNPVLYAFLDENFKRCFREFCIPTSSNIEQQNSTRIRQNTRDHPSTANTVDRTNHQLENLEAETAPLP
Sodium-dependent dopamine transporter, sequence (Q01959 whole entry): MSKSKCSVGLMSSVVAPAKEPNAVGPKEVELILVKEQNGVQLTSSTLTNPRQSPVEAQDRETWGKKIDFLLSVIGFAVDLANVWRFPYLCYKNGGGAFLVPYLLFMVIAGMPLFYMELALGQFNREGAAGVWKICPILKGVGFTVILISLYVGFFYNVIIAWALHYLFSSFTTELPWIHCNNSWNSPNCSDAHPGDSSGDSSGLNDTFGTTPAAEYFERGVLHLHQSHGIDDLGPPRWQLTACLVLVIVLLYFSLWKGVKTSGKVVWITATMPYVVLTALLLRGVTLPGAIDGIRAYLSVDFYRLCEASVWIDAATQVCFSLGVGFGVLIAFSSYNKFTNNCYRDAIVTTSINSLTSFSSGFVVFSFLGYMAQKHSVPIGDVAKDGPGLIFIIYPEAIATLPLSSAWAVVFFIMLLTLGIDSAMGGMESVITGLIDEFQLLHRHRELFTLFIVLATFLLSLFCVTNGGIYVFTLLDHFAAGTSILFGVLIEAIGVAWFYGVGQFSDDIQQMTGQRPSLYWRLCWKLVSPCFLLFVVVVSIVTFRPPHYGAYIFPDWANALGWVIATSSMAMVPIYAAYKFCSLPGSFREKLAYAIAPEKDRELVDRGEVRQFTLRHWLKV
Melanocortin receptor 4, sequence (P32245 whole entry): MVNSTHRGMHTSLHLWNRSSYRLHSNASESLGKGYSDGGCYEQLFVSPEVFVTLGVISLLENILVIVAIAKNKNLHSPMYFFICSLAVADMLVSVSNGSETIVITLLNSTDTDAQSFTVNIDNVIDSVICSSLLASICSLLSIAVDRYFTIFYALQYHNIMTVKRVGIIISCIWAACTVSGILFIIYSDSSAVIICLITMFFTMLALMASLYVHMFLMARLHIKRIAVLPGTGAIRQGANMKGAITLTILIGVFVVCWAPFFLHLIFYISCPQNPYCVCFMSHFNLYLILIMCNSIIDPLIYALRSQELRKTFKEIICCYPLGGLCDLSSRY
Vasopressin V2 receptor, sequence (P30518 whole entry): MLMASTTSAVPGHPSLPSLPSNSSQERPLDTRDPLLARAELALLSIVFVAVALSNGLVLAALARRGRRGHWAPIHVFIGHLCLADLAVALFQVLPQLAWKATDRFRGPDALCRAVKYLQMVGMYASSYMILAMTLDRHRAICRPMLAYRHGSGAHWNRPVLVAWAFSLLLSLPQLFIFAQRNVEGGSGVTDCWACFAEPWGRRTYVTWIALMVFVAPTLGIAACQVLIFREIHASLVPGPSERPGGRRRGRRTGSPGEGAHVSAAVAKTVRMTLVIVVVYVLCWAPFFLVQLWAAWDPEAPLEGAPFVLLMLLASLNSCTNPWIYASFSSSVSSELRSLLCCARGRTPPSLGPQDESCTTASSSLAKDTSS

Structure (SMILES) | AC50 [1] [µM] | AC50 [2] [µM] | AC50 [3] [µM] | AC50 (Mu-type opioid receptor) [µM] | AC50 (Vasopressin V2 receptor) [µM] | AC50 (Cannabinoid receptor 1) [µM] | AC50 [4] [µM] | AC50 (Progesterone receptor) [µM] | AC50 (D(1A) dopamine receptor) [µM] | AC50 (Melanocortin receptor 4) [µM] | AC50 [5] [µM]
C[N+]1(C)CCC(=C(c2ccccc2)c2ccccc2)CC1 | > 30 | > 30 | > 10 | > 30 | > 30 | > 10 | > 10 | > 10 | > 10 | > 30 | –
CN(C)Cc1nnc2n1-c1ccc(Cl)cc1C(c1ccccc1)=NC2 [ADINAZOLAM] | > 10 | > 30 | > 10 | > 30 | > 10 | > 10 | > 10 | > 10 | > 10 | > 10 | –
Cc1ccccc1-n1c(CF)nc2ccc(N)cc2c1=O [AFLOQUALONE] | > 30 | 13 | > 30 | > 30 | > 30 | > 10 | > 10 | > 30 | > 30 | > 30 | –
CCC1(c2ccc(N)cc2)CCC(=O)NC1=O (stereo unspecified) [AMINOGLUTETHIMIDE] | > 30 | 9.5 | > 30 | > 30 | > 30 | – | > 30 | > 30 | > 30 | – | –
O=C(/C=C/c1cccc(S(=O)(=O)Nc2ccccc2)c1)NO [BELINOSTAT] | > 30 | 7.1 | > 10 | > 30 | > 30 | > 10 | > 10 | – | – | > 30 | –
CC(Cc1cccc(C(F)(F)F)c1)NCCOC(=O)c1ccccc1 (stereo unspecified) [BENFLUOREX] | > 30 | – | 15 | 17 | > 30 | – | > 30 | > 30 | > 30 | – | –
CCOC(=O)c1ccc(N)cc1 [BENZOCAINE] | > 10 | > 30 | > 10 | > 30 | > 10 | > 10 | 19 | > 10 | > 10 | > 10 | –
CC(C)(Oc1ccc(CCNC(=O)c2ccc(Cl)cc2)cc1)C(=O)O [BEZAFIBRATE] | > 10 | > 30 | > 10 | > 30 | > 10 | > 10 | > 10 | > 10 | > 10 | > 10 | –
O=C(O)COCCN1CCN(C(c2ccccc2)c2ccc(Cl)cc2)CC1 (stereo unspecified) [CETIRIZINE] | > 30 | > 30 | – | – | > 30 | > 10 | > 10 | – | – | > 30 | > 30
C/C=C(/C(=C/C)c1ccc(O)cc1)c1ccc(O)cc1 [DIENESTROL] | > 10 | > 30 | > 30 | > 30 | > 10 | > 10 | > 10 | > 30 | > 10 | > 10 | –
CN[C@]1(c2ccccc2Cl)CCCCC1=O [ESKETAMINE] | > 30 | > 30 | > 30 | – | > 30 | > 30 | > 30 | > 30 | > 30 | – | –
COc1ccc([C@@H]2CC(=O)c3c(O)cc(O)cc3O2)cc1O [HESPERETIN] | > 10 | 30 | > 10 | > 30 | > 10 | > 10 | > 10 | > 10 | > 30 | > 10 | –
CN(C)CCCN1c2ccccc2CCc2ccccc21 [IMIPRAMINE] | > 30 | > 10 | – | 8.1 | > 30 | 0.174 | > 10 | – | > 10 | 21.4 | –
CCC[C@@H]1C[C@@H](C(=O)N[C@@H]([C@H]2O[C@H](SC)[C@H](O)[C@@H](O)[C@H]2O)[C@@H](C)O)N(C)C1 [LINCOMYCIN] | > 10 | > 30 | > 10 | > 30 | > 10 | > 10 | > 10 | – | > 10 | > 10 | –
C=C1c2cccc(O)c2C(=O)C2=C(O)[C@]3(O)C(=O)C(C(N)=O)=C(O)[C@@H](N(C)C)[C@@H]3[C@@H](O)[C@H]12 [METHACYCLINE] | > 30 | > 30 | > 10 | > 30 | > 30 | > 10 | > 10 | > 30 | > 10 | 41.5 | –
CN(Cc1cnc2nc(N)nc(N)c2n1)c1ccc(C(=O)N[C@@H](CCC(=O)O)C(=O)O)cc1 [METHOTREXATE] | > 30 | > 30 | > 30 | > 30 | > 30 | > 10 | > 10 | – | > 10 | > 30 | –
O=C1c2cccc3c2[C@H](CCC3)CN1[C@@H]1CN2CCC1CC2 [PALONOSETRON] | > 30 | > 30 | > 30 | – | > 30 | > 30 | > 30 | > 30 | > 30 | > 30 | –
CC(C)c1cccc(C(C)C)c1O [PROPOFOL] | – | > 30 | > 30 | > 30 | – | – | > 30 | > 30 | > 30 | – | –
CN[C@@H](C)[C@@H](O)c1ccccc1 [PSEUDOEPHEDRINE] | > 30 | > 30 | > 10 | > 30 | > 30 | – | > 10 | – | > 10 | > 30 | –
C[C@]12CCC(=O)C[C@@H]1CC[C@@H]1[C@@H]2CC[C@]2(C)[C@@H](O)CC[C@@H]12 [STANOLONE] | > 30 | > 30 | > 30 | – | > 30 | > 30 | > 30 | 0.0396 | > 30 | > 30 | –
